Measurements as given in patent US20070037193A1, “Modulation of peroxisome proliferator-activated receptors” (priority 2005, published 2007).
One block for each compound: values may come before it.

How the values were obtained:
PGR3/ZADH2 = assay: Substrate specificity of PGR3/ZADH2; assay type: biochemical; conditions: 15-keto PGE2 replaced with the test substrate
Experimental: (§1) Enzymatic activity was determined as follows. 10 μg of the recombinant mouse or human PGR3/ZADH2 protein was incubated at 37° C. in a reaction buffer containing 0.1IM Tris-HCl (pH7.4), 0.5 mM NADPH, and 0.57 mM 15-keto PGE2. The reaction was conducted at 37° C. in the dark for 10 minutes and terminated by adding 700 μl of a buffer which contained 50 mM potassium hydrogen phthalate, pH 3.0, and 1% Tween 20. 200 μl of a color development reagent, which contained 790 μM indonitrotetrazolium chloride, 60 μM phenazene methosulfate, and 1% Tween 20, was added to oxidize any unreacted NADPH. Absorbance at 490 nm was measured by an ELISA plate reader. A standard curve was generated using reaction buffers containing serially diluted amounts of NADPH.
Substrate specificity of PGR3/ZADH2 was determined using the just-described procedure, except that 15-keto PGE2 was replaced with each of six prostaglandin substrates, each of three downstream metabolites, or leukotriene B4.

endogenous PPAR = assay: Reporter gene assay of endogenous PPAR activity in differentiating 3T3-L1 cells; assay type: cell-based; conditions: 3T3-L1 cells induced to differentiate for two days
Experimental: (§2) The effect of prostaglandin on PPAR-gamma activity in adipocytes was investigated. After treatment with a medium that induces cell differentiation, 3T3-L1 cells were treated from day 2 to 4 during adipogenesis with 14 μM 15-keto PGE2, 13,14-dihydro-15-keto PGE2, 15-keto PGF2α, 13,14-dihydro-15-keto PGF2α, or 4.5 μM of BRL49653, a PPAR-gamma agonist. See Forman et al., Cell (1995) 83:803-812. At day 6, aggregates of lipid droplets were stained with oil-red O for observation. […] After being induced to differentiate for two days, the 3T3-L1 cells were transfected with a reporter gene.

3T3-L1 cells = assay: Adipogenesis in 3T3-L1 cells, oil-red O staining of lipid droplets; assay type: cell-based; conditions: 14 μM from day 2 to 4; staining at day 6
Experimental: as §2

PPAR-gamma = biological target: T1, PPAR-gamma (Homo sapiens, UniProt P37231); assay: GAL4-PPAR ligand-binding domain luciferase reporter in 3T3-L1 cells; assay type: cell-based
T1 construct: expressed in transfected cells; host or cells: 3T3-L1 cells
T1 sequence (P37231 238-503 limits assumed): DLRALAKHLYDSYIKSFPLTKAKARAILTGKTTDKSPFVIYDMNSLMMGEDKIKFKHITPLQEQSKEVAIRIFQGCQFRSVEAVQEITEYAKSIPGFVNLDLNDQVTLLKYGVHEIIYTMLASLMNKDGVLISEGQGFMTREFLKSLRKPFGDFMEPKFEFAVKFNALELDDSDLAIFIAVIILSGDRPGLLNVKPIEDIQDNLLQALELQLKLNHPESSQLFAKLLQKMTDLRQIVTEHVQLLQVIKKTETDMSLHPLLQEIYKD
Text: A luciferase reporter gene was transfected to 3T3-L1 cells together with the ligand-binding domain of PPAR-alpha, PPAR-gamma or PPAR-delta fused to a yeast GAL4 DNA-binding domain.

PPAR-gamma target genes = assay: Protein expression of adipogenesis-specific PPAR-gamma target genes in 3T3-L1 cells; assay type: cell-based
Text: Also examined was the ability of 15-keto PGE2 to induce protein expression of adipogenesis-specific, PPAR-gamma target genes, i.e., IRS-1 and -2.

Human PGR3/ZADH2 = biological target: T2, Human PGR3/ZADH2 (Homo sapiens, UniProt Q8N4Q0); assay: PGR3/ZADH2 enzyme inhibition assay (reduction of 15-keto-PGE2, NADPH consumption); assay type: biochemical; conditions: 50 μM compound, No Inhibitor = 100
T2 construct: GST; made in house; host or cells: E. coli
T2 sequence (Q8N4Q0 1-377): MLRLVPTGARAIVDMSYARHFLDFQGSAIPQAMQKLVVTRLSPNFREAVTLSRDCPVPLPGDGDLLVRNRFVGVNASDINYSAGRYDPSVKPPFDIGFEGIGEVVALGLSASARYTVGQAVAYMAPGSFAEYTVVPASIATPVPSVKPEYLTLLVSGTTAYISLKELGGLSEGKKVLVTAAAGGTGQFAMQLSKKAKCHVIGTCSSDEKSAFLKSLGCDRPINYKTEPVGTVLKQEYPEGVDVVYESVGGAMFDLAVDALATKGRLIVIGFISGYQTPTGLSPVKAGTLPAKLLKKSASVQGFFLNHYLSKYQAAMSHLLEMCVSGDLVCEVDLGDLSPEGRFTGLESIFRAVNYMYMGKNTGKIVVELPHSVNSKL
Experimental: as §1
(§3) Compounds 1-49 were tested for their inhibitory effects on PGR3/ZADH2 activity. These compounds are either commercially available (e.g., from Sigma-Aldrich, St. Louis, Mo.) or can be prepared from methods known in the art. The inhibition assay was performed following the procedure described above. Different concentrations of PGR3/ZADH2 inhibitors were added to the reaction mixture and incubated for 2 hours at 37° C.
(§4) More specifically, 50 μM of compounds 8, 12, 13, and 27, and 25 μM of tri-fluorobenzyl-2-hydroxycinnamate (compound 22) were added to the PGR3/ZADH2 enzyme reaction system and the ability of enzyme to reduce 15-keto-PGE2 were measured.

Mouse PGR3/ZADH2 = biological target: T3, Mouse PGR3/ZADH2 (Mus musculus, UniProt Q8BGC4); assay: as above; assay type: biochemical; conditions: 50 μM compound, No Inhibitor = 100
T3 construct: GST; made in house; host or cells: E. coli
T3 sequence (Q8BGC4 1-377): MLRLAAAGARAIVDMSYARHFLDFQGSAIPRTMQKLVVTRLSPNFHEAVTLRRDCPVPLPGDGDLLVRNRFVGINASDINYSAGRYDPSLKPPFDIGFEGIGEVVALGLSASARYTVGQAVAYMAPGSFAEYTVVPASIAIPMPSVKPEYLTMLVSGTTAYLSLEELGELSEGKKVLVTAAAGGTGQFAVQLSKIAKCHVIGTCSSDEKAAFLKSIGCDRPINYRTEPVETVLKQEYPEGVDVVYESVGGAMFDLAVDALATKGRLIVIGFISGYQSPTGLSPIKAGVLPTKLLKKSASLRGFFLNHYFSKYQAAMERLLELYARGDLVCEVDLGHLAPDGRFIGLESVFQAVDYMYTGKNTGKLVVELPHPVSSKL
Experimental: as §1, §3, §4

Compound: CCCCC[C@H](O)/C=C/[C@@H]1[C@@H](CC(=O)CCCCC(=O)O)[C@@H](O)C[C@H]1O [6-keto PGF1α]
specific activity as substrate of PGR3/ZADH2 (PGR3/ZADH2): no specific activity was detected

Compound: CCCCCC(=O)CCC1C(=O)CC(O)C1C/C=C\CCCC(=O)O (centres unmarked) [13,14-dihydro-15-keto PGD2]
specific activity as substrate of PGR3/ZADH2 (PGR3/ZADH2): no specific activity was detected

Compound: CCCCCC(=O)CC[C@H]1[C@H](O)CC(=O)[C@@H]1C/C=C\CCCC(=O)O [13,14-dihydro-15-keto PGE2]
specific activity as substrate of PGR3/ZADH2 (PGR3/ZADH2): no specific activity was detected
endogenous PPAR activity (reporter gene) (endogenous PPAR): failed to increase PPAR activity

Compound: CCCCCC(=O)CC[C@@H]1[C@@H](C/C=C\CCCC(=O)O)[C@@H](O)C[C@H]1O [13,14-dihydro-15-keto PGF2α]
specific activity as substrate of PGR3/ZADH2 (PGR3/ZADH2): no specific activity was detected
endogenous PPAR activity (reporter gene) (endogenous PPAR): failed to increase PPAR activity

Compound: CCCCCC(=O)/C=C/[C@H]1[C@H](O)CC(=O)[C@@H]1CCCCCCC(=O)O [15-keto PGE1]
specific activity as substrate of PGR3/ZADH2 (PGR3/ZADH2): reacted specifically

activation of PPAR-gamma (GAL4 fusion, luciferase reporter) (PPAR-gamma): activated PPAR-gamma
Compound: CCCCCC(=O)/C=C/[C@H]1[C@H](O)CC(=O)[C@@H]1C/C=C\CCCC(=O)O [15-keto PGE2]
adipogenesis (lipid droplets, oil-red O) (3T3-L1 cells): effectively enhanced adipogenesis at a level similar to BRL49653
endogenous PPAR activity (reporter gene) (endogenous PPAR): enhanced endogenous PPAR activity significantly
amount of IRS-1 protein (PPAR-gamma target genes): did not increase the amount of IRS-1 protein
PPAR-gamma1 and PPAR-gamma2 protein expression (PPAR-gamma target genes; added with MIX, insulin and dexamethasone): significantly enhanced PPAR-gammal and PPAR-gamma2 expression
expression of aP2 (PPAR-gamma target genes; even in the absence of MIX): strongly induced expression of aP2
IRS-2 expression (PPAR-gamma target genes; in the presence of insulin and dexamethasone): enhanced the expression to a level similar to MIX

Compound: CCCCCC(=O)/C=C/[C@@H]1[C@@H](CCCCCCC(=O)O)[C@@H](O)C[C@H]1O [15-keto PGF1αL, 15-keto PGF1α]
specific activity as substrate of PGR3/ZADH2 (PGR3/ZADH2): reacted specifically

activation of PPAR-gamma (GAL4 fusion, luciferase reporter) (PPAR-gamma): activated PPAR-gamma
Compound: CCCCCC(=O)/C=C/[C@@H]1[C@@H](C/C=C\CCCC(=O)O)[C@@H](O)C[C@H]1O [15-keto PGF2α]
specific activity as substrate of PGR3/ZADH2 (PGR3/ZADH2): reacted specifically
endogenous PPAR activity (reporter gene) (endogenous PPAR): enhanced endogenous PPAR activity significantly

activity at 50 µM (Human PGR3/ZADH2): 25.6%
activity at 50 µM (Mouse PGR3/ZADH2): 11.4%
Compound: O=c1c(O)c(-c2ccccc2)oc2cc(O)cc(O)c12 [Compound 8]

Compound: CCCCC[C@H](O)/C=C/[C@@H]1[C@@H](C/C=C\CCCC(=O)O)[C@@H](O)C[C@@H]1O [Compound 11b-PGF2α, 11b-PGF2α]
specific activity as substrate of PGR3/ZADH2 (PGR3/ZADH2): no specific activity was detected

activity at 50 µM (Human PGR3/ZADH2): 27.5%
activity at 50 µM (Mouse PGR3/ZADH2): 6.4%
Compound: COc1cc(/C=C/C(=O)c2ccccc2O)cc(OC)c1OC [Compound 12]

Compound: COc1cc(/C=C/C(=O)c2cc(Br)ccc2O)cc(OC)c1OC [Compound 13]
activity at 50 µM (Human PGR3/ZADH2): 51.1%
activity at 50 µM (Mouse PGR3/ZADH2): 37.1%

activity at 50 µM (Human PGR3/ZADH2): 91.1%
activity at 50 µM (Mouse PGR3/ZADH2): 87.4%
Compound: O=c1c(O)c(-c2ccc(O)c(O)c2)oc2ccccc12 [Compound 27]

Compound: CCCCC[C@H](O)/C=C/[C@@H]1[C@@H](C/C=C\CCCC(=O)O)[C@H](O)C[C@H]1O [PGF2β]
specific activity as substrate of PGR3/ZADH2 (PGR3/ZADH2): no specific activity was detected

Compound: CCCCC/C=C\C[C@@H](O)/C=C/C=C/C=C\[C@@H](O)CCCC(=O)O [leukotriene B4]
specific activity as substrate of PGR3/ZADH2 (PGR3/ZADH2): no specific activity was detected
